In experiment [1] the target is T1, transporter encoded by rB20a (Rattus norvegicus, UniProt P28572).
T1 sequence (P28572 1-638): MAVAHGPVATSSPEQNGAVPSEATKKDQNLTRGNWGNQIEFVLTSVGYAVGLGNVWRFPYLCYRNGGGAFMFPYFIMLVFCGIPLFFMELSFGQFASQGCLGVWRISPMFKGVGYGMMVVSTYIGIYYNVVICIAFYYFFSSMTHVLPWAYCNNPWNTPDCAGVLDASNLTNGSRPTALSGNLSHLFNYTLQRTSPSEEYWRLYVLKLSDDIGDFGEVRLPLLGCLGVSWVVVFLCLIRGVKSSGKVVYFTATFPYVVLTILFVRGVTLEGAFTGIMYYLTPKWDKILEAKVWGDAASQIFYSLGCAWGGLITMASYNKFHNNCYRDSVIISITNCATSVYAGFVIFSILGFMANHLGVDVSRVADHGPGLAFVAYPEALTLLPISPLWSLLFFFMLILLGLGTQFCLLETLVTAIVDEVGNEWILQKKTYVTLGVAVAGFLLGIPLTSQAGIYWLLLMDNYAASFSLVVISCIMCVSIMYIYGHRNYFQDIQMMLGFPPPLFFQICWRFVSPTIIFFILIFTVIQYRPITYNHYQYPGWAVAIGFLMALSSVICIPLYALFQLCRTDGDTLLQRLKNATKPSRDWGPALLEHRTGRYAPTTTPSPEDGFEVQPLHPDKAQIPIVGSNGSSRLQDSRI
The experiment in a line: Screen of COS cells transfected with rB20a for transport of radiolabeled neurotransmitters and amino acids. It counts as cell-based. The settings on record: data not shown. As to the method:
(§1) Plates were incubated at 37° C. for 10 or 20 minutes, then washed rapidly 3× with HBS. Cells were solubilized with 0.05% sodium deoxycholate/0.1N NaOH (1 ml/well), 0.5 ml aliquots were removed, neutralized with 1N HCl, and radioactivity was determined by scintillation counting. Protein was quantified in an aliquot of the solubilized cells with the Bradford Reagent (Biorad, Richmond, Calif.), according to the manufacturer's directions.

In experiment [2] the target is T2, glycine transporter encoded by rB20a (Rattus norvegicus, UniProt P28572).
T2 construct: expressed in transfected cells; host or cells: COS-7 cells, transient transfection with pSVL-rB20a
T2 sequence (P28572 1-638): T1 sequence (P28572 1-638)
The experiment in a line: Competition for [3H]glycine uptake by COS-7 cells transfected with rB20a. It counts as cell-based. The settings on record: agents at 1 mM (Table 1). As to the method: These two clones were constructed into a full-length clone (designated rB20a) by ligation at their internal Nco I sites and then cloned into the eukaryotic expression vector pSVL (Pharmacia LKB Biotechnology, Piscataway, N.J.). Transient transfection of COS cells was carried out using DEAE-dextran with DMSO according to the method of Lopata et al. (1984) with minor modifications. COS cells were grown in six-well plates (37° C.,5%CO2) in high glucose Dulbecco's modified Eagle medium supplemented with 10% bovine calf serum, 100 U/ml penicillin G, and 100 μg/ml streptomycin sulfate. Cells were routinely used two days after transfection for transport studies.
as §1
Nonspecific uptake was determined with 1 mM

Take [^3 H]glutamate: the “effect of rB20a expression on uptake of the radiolabeled substrate” value in experiment [1] was “did not significantly alter”.

Take `CNC(C)(C)C(=O)O` [α-(methylamino) Isobutyric acid]: the “competition for [3H]glycine uptake (in words)” value in experiment [2] was “Neither α-(methylamino) isobutyric acid (1 mM), a substrate for system A, nor L-serine (1 mM), a substrate for system ASC, significantly competed”.

In the case of `N[C@@H](CO)C(=O)O` [L-serine], the “competition for [3H]glycine uptake (in words)” value in experiment [2] is “Neither α-(methylamino) isobutyric acid (1 mM), a substrate for system A, nor L-serine (1 mM), a substrate for system ASC, significantly competed”.

(Values after patent US6127131A (Synaptic Pharmaceutical Corporation, priority 1998, dated 2000).)
